Experimental data taken from US10870652B2, “Compounds and methods for modulating bruton's tyrosine kinase” (CORVUS PHARMACEUTICALS, INC., priority 2016, dated 2020).

Legend:
Format in all cases: biochemical
ITK = molecular target: T1, ITK (Homo sapiens, UniProt Q08881); assay: ITK IC50 kinase inhibition assay
T1 sequence (Q08881 1-620): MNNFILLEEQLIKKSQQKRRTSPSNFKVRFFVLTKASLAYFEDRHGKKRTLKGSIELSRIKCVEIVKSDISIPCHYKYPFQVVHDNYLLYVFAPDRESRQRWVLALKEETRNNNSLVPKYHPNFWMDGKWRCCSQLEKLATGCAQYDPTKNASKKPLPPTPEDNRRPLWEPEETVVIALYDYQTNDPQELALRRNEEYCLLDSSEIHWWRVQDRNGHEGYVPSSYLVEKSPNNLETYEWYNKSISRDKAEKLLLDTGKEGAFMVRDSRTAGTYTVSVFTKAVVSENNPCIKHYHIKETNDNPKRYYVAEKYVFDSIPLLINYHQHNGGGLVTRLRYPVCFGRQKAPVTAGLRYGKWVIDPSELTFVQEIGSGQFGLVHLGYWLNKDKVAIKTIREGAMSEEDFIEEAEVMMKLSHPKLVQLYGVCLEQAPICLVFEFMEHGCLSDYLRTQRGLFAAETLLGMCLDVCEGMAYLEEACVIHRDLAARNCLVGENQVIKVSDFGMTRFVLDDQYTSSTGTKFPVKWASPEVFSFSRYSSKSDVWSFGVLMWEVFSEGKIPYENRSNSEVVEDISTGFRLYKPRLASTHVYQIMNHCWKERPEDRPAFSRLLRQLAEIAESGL

BTK = BTK (Homo sapiens, UniProt Q06187); assay: BTK IC50 kinase inhibition assay
JAK3 = molecular target: T2, JAK3 (Homo sapiens, UniProt P52333); assay: JAK3 IC50 kinase inhibition assay
T2 sequence (P52333 1-1124): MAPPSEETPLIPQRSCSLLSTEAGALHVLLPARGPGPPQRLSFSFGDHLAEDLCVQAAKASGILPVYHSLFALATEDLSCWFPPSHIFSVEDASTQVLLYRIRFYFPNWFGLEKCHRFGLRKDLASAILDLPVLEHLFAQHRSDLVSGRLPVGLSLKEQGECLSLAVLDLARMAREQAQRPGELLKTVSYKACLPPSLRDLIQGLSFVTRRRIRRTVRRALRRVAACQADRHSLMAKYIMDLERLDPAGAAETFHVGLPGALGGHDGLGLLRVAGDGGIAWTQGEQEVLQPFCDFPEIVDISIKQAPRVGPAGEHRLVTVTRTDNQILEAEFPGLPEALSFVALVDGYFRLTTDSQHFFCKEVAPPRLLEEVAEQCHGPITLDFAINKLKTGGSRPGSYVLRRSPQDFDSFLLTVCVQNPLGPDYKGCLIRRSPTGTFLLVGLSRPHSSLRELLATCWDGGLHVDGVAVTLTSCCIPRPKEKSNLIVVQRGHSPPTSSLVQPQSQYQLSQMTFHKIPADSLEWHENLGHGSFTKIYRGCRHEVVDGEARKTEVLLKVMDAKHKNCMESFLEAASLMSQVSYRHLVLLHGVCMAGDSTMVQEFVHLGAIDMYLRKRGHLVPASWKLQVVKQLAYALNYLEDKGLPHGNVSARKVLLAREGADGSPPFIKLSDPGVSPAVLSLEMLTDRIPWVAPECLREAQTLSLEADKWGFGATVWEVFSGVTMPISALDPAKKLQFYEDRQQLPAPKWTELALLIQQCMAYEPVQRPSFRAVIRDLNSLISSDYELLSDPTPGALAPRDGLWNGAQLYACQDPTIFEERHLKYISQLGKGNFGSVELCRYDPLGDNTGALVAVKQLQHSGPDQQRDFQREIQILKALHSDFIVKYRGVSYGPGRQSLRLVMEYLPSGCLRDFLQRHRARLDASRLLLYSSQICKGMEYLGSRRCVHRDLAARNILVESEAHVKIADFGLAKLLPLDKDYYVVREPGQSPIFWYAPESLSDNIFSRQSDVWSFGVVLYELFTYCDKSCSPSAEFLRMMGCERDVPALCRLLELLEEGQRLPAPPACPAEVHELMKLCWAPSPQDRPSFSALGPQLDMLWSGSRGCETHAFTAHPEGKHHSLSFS

RLK = molecular target: T3, RLK (Homo sapiens, UniProt P42681); assay: RLK IC50 kinase inhibition assay
T3 sequence (P42681 1-527): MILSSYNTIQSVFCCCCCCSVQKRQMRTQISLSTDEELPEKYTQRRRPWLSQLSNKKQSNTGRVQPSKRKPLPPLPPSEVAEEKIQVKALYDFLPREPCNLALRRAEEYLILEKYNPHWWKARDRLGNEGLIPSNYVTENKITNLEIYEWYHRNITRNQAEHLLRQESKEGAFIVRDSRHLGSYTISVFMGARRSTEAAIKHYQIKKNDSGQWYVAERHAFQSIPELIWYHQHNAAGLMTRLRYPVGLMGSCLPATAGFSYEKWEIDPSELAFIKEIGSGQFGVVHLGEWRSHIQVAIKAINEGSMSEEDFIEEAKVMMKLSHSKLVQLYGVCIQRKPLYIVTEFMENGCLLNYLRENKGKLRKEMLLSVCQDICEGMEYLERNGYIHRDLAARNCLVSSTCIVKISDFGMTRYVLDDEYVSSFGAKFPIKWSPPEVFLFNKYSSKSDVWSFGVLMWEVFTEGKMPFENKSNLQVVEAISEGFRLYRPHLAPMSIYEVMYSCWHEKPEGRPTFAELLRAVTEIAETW

TXK = molecular target: T4, TXK (Homo sapiens, UniProt P42681); assay: TXK IC50 kinase inhibition assay
T4 sequence (P42681 1-527): T3 sequence (P42681 1-527)

Sequence of BTK (Q06187 whole entry): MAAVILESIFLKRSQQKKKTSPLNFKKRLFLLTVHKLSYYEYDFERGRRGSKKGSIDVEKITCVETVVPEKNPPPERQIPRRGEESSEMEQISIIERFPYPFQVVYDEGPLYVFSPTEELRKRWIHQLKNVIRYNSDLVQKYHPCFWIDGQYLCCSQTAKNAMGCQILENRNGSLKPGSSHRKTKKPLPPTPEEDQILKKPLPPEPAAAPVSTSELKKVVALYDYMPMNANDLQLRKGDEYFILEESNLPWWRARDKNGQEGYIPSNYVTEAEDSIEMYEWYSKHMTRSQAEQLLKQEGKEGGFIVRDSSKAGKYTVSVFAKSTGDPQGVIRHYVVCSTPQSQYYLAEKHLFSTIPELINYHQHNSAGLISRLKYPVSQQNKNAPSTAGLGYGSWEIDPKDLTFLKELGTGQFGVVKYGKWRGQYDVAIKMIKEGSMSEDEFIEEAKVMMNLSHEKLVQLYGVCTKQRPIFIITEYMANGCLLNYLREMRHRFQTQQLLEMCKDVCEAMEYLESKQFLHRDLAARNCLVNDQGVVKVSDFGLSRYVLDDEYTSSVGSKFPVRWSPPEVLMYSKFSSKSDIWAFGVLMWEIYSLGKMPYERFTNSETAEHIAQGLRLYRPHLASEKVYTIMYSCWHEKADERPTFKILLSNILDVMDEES

Row | Structure (SMILES) | IC50 (ITK) [nM] | IC50 (BTK) [nM] | IC50 (JAK3) [nM] | IC50 (RLK) [nM] | IC50 (TXK) [nM]
1 | C=CC(=O)N1CCC[C@@H](n2nc(-c3ccc(Oc4ccccc4)cc3)c3cnc(N)nc32)C1 [Compound A11] | > 500 | < 100 | > 500 | 100 to 500 | 
2 | CC#CC(=O)N1CCC2(CC1)CC(n1nc(-c3ccc(Oc4ccccc4)cc3)c3cncnc31)C2 [Compound A68, 1-(2-(3-(4-phenoxyphenyl)-1H-pyrazolo[3,4-d]pyrimidin-1-yl)-7-azaspiro[3.5]nonan-7-yl)but-2-yn-1-one] | > 500 | > 500 | > 500 |  | > 500
3 | CC#CC(=O)N[C@H]1C[C@H](n2nc(-c3ccc(Oc4ccccc4)cc3)c3cncnc32)C1 [Compound A69, N-((1r,3r)-3-(3-(4-phenoxyphenyl)-1H-pyrazolo[3,4-d]pyrimidin-1-yl)cyclobutyl)but-2-ynamide] | > 500 | < 100 | > 500 |  | > 500
4 | CC#CC(=O)N[C@H]1CC[C@H](n2nc(-c3ccc(Oc4ccccc4)cc3)c3cncnc32)CC1 [Compound A70, N-((1r,4r)-4-(3-(4-phenoxyphenyl)-1H-pyrazolo[3,4-d]pyrimidin-1-yl)cyclohexyl)but-2-ynamide] | > 500 | > 500 | > 500 |  | > 500
5 | CCC#CC(=O)N1CC2(CC(n3nc(-c4ccc(Oc5ccccc5)cc4)c4cncnc43)C2)C1 [Compound A71, 1-(6-(3-(4-phenoxyphenyl)-1H-pyrazolo[3,4-d]pyrimidin-1-yl)-2-azaspiro[3.3]heptan-2-yl)pent-2-yn-1-one] | > 500 | 100 to 500 | > 500 |  | 100 to 500
6 | C=CC(=O)N1CCC[C@@H](n2nc(-c3ccc(Oc4ccccc4)cc3)c3cncc(C#N)c32)C1 [Compound A72, (R)-1-(1-acryloylpiperidin-3-yl)-3-(4-phenoxyphenyl)-1H-pyrazolo[4,3-c]pyridine-7-carbonitrile] | > 500 | < 100 | > 500 |  | < 100
7 | C=CC(=O)N1CC[C@@H](n2nc(-c3ccc(Oc4ccccc4)cc3)c3cncc(C#N)c32)C1 [Compound A73, (R)-1-(1-acryloylpyrrolidin-3-yl)-3-(4-phenoxyphenyl)-1H-pyrazolo[4,3-c]pyridine-7-carbonitrile] | > 500 | < 100 | > 500 |  | < 100

Continued, values first:

Row | IC50 (ITK) [nM] | IC50 (BTK) [nM] | IC50 (JAK3) [nM] | IC50 (RLK) [nM] | IC50 (TXK) [nM] | Structure (SMILES)
8 | > 500 | < 100 | > 500 |  | > 500 | C=CC(=O)N1CCC[C@H]1Cn1nc(-c2ccc(Oc3ccccc3)cc2)c2cncc(C#N)c21 [Compound A74, (S)-1-((1-Acryloylpyrrolidin-2-yl)methyl)-3-(4-phenoxyphenyl)-1H-pyrazolo[4,3-c]pyridine-7-carbonitrile]
9 | 100 to 500 | < 100 | 100 to 500 |  | < 100 | CN(C)CC#CC(=O)N1CC2(CC(n3nc(-c4ccc(Oc5ccccc5)cc4)c4cncnc43)C2)C1 [Compound A75, 4-(dimethylamino)-1-(6-(3-(4-phenoxyphenyl)-1H-pyrazolo[3,4-d]pyrimidin-1-yl)-2-azaspiro[3.3]heptan-2-yl)but-2-yn-1-one]
10 | > 500 | < 100 | > 500 |  | < 100 | CN1CCN(CC#CC(=O)N2CC3(CC(n4nc(-c5ccc(Oc6ccccc6)cc5)c5cncnc54)C3)C2)CC1 [Compound A76, 4-(4-Methylpiperazin-1-yl)-1-(6-(3-(4-phenoxyphenyl)-1H-pyrazolo[3,4-d]pyrimidin-1-yl)-2-azaspiro[3.3]heptan-2-yl)but-2-yn-1-one]
11 | > 500 | < 100 | > 500 |  | < 100 | O=C(C#CCN1CCCCC1)N1CC2(CC(n3nc(-c4ccc(Oc5ccccc5)cc4)c4cncnc43)C2)C1 [Compound A77, 1-(6-(3-(4-Phenoxyphenyl)-1H-pyrazolo[3,4-d]pyrimidin-1-yl)-2-azaspiro[3.3]heptan-2-yl)-4-(piperidin-1-yl)but-2-yn-1-one]
12 | > 500 | 100 to 500 | > 500 |  | > 500 | O=C(C#CC1CC1)N1CC2(CC(n3nc(-c4ccc(Oc5ccccc5)cc4)c4cncnc43)C2)C1 [Compound A78, 3-Cyclopropyl-1-(6-(3-(4-phenoxyphenyl)-1H-pyrazolo[3,4-d]pyrimidin-1-yl)-2-azaspiro[3.3]heptan-2-yl)prop-2-yn-1-one]
13 | > 500 | < 100 | > 500 |  | < 100 | COCC#CC(=O)N1CC2(CC(n3nc(-c4ccc(Oc5ccccc5)cc4)c4cncnc43)C2)C1 [Compound A79, 4-Methoxy-1-(6-(3-(4-phenoxyphenyl)-1H-pyrazolo[3,4-d]pyrimidin-1-yl)-2-azaspiro[3.3]heptan-2-yl)but-2-yn-1-one]
